Data taken from patent publication US10209240B2, “Predicting human developmental toxicity of pharmaceuticals using human stem-like cells and metabolomic ratios” (STEMINA BIOMARKER DISCOVERY, INC., priority 2012, dated 2019).
Read-outs that look alike come from different tables or passages of the source.

Legend:
hES cells [1] = assay: ADMA/cystine ratio simplified predictive model in hES cell spent media; type: cell-based, human; conditions: single dose per treatment; ratios less than 0.9 indicate teratogenicity
From the text: (§1) This simplified model is based on a ratio of the reference treatment (DMSO) normalized values of ADMA and cystine.
The X-axis is the reference normalized ratio of ADMA/Cystine. The y-axis is the training set of pharmaceuticals. Grey color with triangle glyphs represents teratogens and black color with circle glyphs represents non-teratogens. Each glyph point represents the media value of an independent experimental block (6 reps per block). The crosshair glyphs mark the sample medians. In FIG. 9, grey vertical line is threshold of teratogenicity, grey horizontal lines are the median absolute deviations, and black vertical line designates 1.0. The arrows at the bottom indicate the values used for differentiation of teratogens and nonteratogens, utilizing a cut off of 0.9 (grey line).

Humans = conditions: cited from earlier work; for Known Effect: validation and test set treatments of Example 2; for Humans (known human developmental toxicity): training and test set
hES cells [2] = assay: devTOX computational model predictions (Version 2.0, Version 2.1) from hES cell metabolomics; type: cell-based, human; conditions: single dose per treatment (Dose column)
From the text: The selection process weighted the predictive capacity of a feature, overall intensity, and peak shape to identify very well behaved features/metabolites that could be measured by targeted LC-MS or even by other detection systems.
as §1

Rabbit = conditions: training and test set; cited from earlier work
WA09 hES cells [3] = test system: WA09 hES cells
Description: Phase I hES Cell Compound Exposure. hES cells were treated with a test compound at a single concentration equivalent to the compound's published therapeutic Cmax. […] This was done to ensure that enough cells were present at the time of sample collection to provide a signal for LC-HRMS analysis. For test compound exposure, all compound stock solutions, with the exception of valproic acid, were made with DMSO (Sigma-Aldrich). […] Each 96-well plate included media controls with and without test compound, 0.1% DMSO solvent control cells and cells exposed to a single concentration of eight different test compounds (FIG. 1A). Media controls were included on each plate to assess the impact of test compound on the sample matrix. hES cells were exposed to the test compound for 72 hours, with media and test compound replacement every 24 hours. Cells were monitored throughout the treatment period to ensure that no differentiation was occurring. After 72 hours of treatment, the spent media from the final 24-hour treatment period was collected and added to acetonitrile (Sigma-Aldrich, final acetonitrile concentration 40%), to halt metabolic processes and precipitate proteins from solution. Individual wells from each 96-well plate were collected and analyzed as separate samples. These samples were then stored at −80° C. until prepared for LC-HRMS analysis. Cell viability was assessed using the CellTiter-Fluor Cell Viability Assay as per the manufacturer's instructions (Promega, Madison, Wis.). Quality control parameters were set such that if the coefficient of variation (CV) for the viability relative fluorescent units (RFU) of the 6 cellular samples in a treatment exceeded 10% and no outliers were identified using the Grubb's test (see the worldwide web at graphpad.com/quickcalcs/Grubbs1.cfm), analysis was halted for that compound and the cell culture experiment was repeated. If outliers were present, the outlier sample was removed from analysis. If the CV for the DMSO control cell samples on a plate were outside of the quality control parameters, the entire plate was repeated. hES cell exposure to each of the 23 compounds was replicated a total of nine times.
(§2) Phase 2 hES Cell Compound Exposure. […] The standard compound exposure levels used for most compounds were nine, 3-fold dilutions ranging from 0.04 μM-300 μM (FIG. 1B). […] The stock solution was diluted 1:1000 in mTeSR1 media and subsequent dilutions were performed in mTeSR1 containing 0.1% DMSO such that the final concentration of DMSO was 0.1% in all treatments. hES cells were treated for 72 hours and spent media from the last 24-hour treatment period was collected and added to acetonitrile containing ^13C6 labeled arginine (Cambridge Isotope Laboratories, Andover, Md.) as described under Phase 1. Spent media samples were stored at −80° C. until prepared for LC-HRMS analysis. Cell viability was assessed using the CellTiter-Fluor Cell Viability Assay. A quality control step was included with criteria that the CV of the measured viability RFU of the DMSO control cells could not exceed 10% for a plate to undergo LC-HRMS analysis. A dose response curve was fit to the reference treatment (0.1% DMSO treated control cells) normalized data (Viability RFUTrt X/Viability RFUDMSO) using a four-parameter log-logistic model with the R package “drc” (Ritz and Streibig, 2005, J Statistical Software; 12:1-22).
Phase 2 Prediction of Developmental Toxicity Potential. […] FIG. 2 illustrates how the assay is applied in this situation. A test compound is considered to be teratogenic at the exposure level where the o/c ratio exceeds the teratogenicity threshold (red box, FIG. 2).

Rodent = conditions: training and test set; cited from earlier work
WA09 hES cells [4] = assay: Phase 2 targeted biomarker assay, ornithine/cystine ratio, 9-point dose response
From the text: Undifferentiated hES Cell Line Maintenance (Phases 1 and 2). WA09 hES cells were obtained from the WiCell Research Institute (Madison, Wis.) and were maintained in feeder free conditions using mTeSR1 media (StemCell Technologies, Inc., Vancouver, BC, Canada) on hESC-qualified Matrigel (BD Biosciences, San Jose, Calif.) coated 6-well plates. To maintain the undifferentiated stem cell population, differentiated colonies were removed daily through aspiration and media was replaced. Additionally, the hES cells were only used in experiments up to passage 40 and were karyotyped approximately every 10 passages to minimize and monitor the potential for genetic instability. hES cells were passaged at 90-95% confluency (approximately every 7 days) using Versene (Life Technologies, Grand Island, N.Y.). Cell cultures were maintained at 37° C. under 5% CO2.
96-well hES Cell Plating (Phases 1 and 2). All experimental treatments were carried out in 96-well plates. To minimize plating variability and increase reproducibility, hES cells were plated as a single cell suspension and maintained in an undifferentiated state during compound exposure. Prior to plating in the 96-well plates, hES cells were removed from a 6-well plate using TrypLE (Life Technologies). The cells were washed with DMEM/F12 (Life Technologies) and resuspended in mTeSR1 containing 10 μM Y27632 Rho-associated kinase (ROCK) inhibitor (Merck KGaA/Calbiochem, Darmstadt, Germany). The ROCK inhibitor is added to the plating media to increase plating efficiency by decreasing dissociation-induced apoptosis. The inner 60 wells of hESC-qualified Matrigel coated 96-well plates were seeded at a density of 100,000 cells per well. The outer wells of the plate contained an equal volume media to minimize differences in humidity across the plate. Compound exposure began 24 hours after plating.
as §2
Sample Preparation (Phases 1 and 2). High molecular weight constituents (>10 KDa) of the spent media samples were removed using a Millipore Multiscreen Ultracel-10 filter plate (EMD Millipore, Billerica, Mass.). Prior to sample filtration, the filter plate was washed with 0.1% NaOH to remove a known contaminant polymer. The plate was then rinsed twice with HPLC-grade water to remove residual polymers and NaOH. Spent media samples were added to the washed filter plate. In Phase 1, samples were spiked with ^13C6 labeled arginine. Samples were centrifuged at 2,000×g at 4° C. for 200 minutes. The filtrate was collected and concentrated overnight in a Savant High Capacity Speedvac Plus Concentrator.

[5] = summarized from TERIS and Briggs et al. 2011, cited from earlier work
[6] = therapeutic peak plasma in vivo concentration, human, cited from earlier work
[7] = test set, teratogenicity potential scored against therapeutic Cmax
[8] = training and test set, o/c ratio scored against therapeutic Cmax

Row | Compound | O/C Ratio Prediction (WA09 hES cells [4]) | Targeted Biomarker Assay prediction (WA09 hES cells [4]) | Model Predictions ADMA/Cystine (hES cells [1]) | Known Effect (Humans) | Model Predictions Version 2.0 (hES cells [2]) | Model Predictions Version 2.1 (hES cells [2]) | Humans (known human developmental toxicity) (Humans) | Rodent prediction (Rodent) | Viability Prediction (WA09 hES cells [3]) | Teratogenicity Potential (μM) Cell Viability (WA09 hES cells [3]; human, 72 h) | Teratogenicity Potential (μM) O/C Ratio (WA09 hES cells [4]; human, 72 h) | Cmax ([6]; training set) | further results
1 | C=CC=O [Acrolein] |  |  | Ter | Ter | Ter | Ter |  |  |  |  |  |  | 
2 | Nc1nc(N)c2nc(CNc3ccc(C(=O)N[C@@H](CCC(=O)O)C(=O)O)cc3)cnc2n1 [Aminopterin] |  |  | Ter | Ter | Ter | Ter | TER | TER |  |  |  |  | Rabbit prediction (Rabbit): TER; Teratogenicity Potential (μM) Cell Viability (WA09 hES cells [3]; test set, interpolated concentration where cell viability dose response curve crosses teratogenicity threshold 0.88, 72 hours): 0.01 µM; Viability Prediction (WA09 hES cells [3]; [7]): TER; Teratogenicity Potential (μM) O/C Ratio (WA09 hES cells [4]; test set, interpolated concentration where o/c ratio dose response curve crosses teratogenicity threshold 0.88, 72 hours): 0.01 µM; O/C Ratio Prediction (WA09 hES cells [4]; [7]): TER; Targeted Biomarker Assay prediction (WA09 hES cells [4]; [8]): TER; Preclinical in vivo and known human developmental effects ([5]; test set compounds): Craniofacial, limb, skeletal,; Cmax ([6]; test set): 0.3 µM
3 | NC(=O)NO [Hydroxyurea] |  | TER | Ter |  | Ter | Ter | TER |  | TER | 251.6 µM |  | 565 µM | Cytotoxicity at the Cmax exposure level (WA09 hES cells [3]; human, 72 h): greater than 30%
4 | CC(=O)CC(c1ccccc1)c1c(O)c2ccccc2oc1=O (centres unmarked) [Warfarin] |  |  | Ter |  | Ter | Ter | TER |  |  |  |  | 23.4 µM | Teratogenicity Potential (μM) Cell Viability (WA09 hES cells [3]; training set, interpolated concentration where cell viability dose response curve crosses teratogenicity threshold 0.88, 72 hours): >300 µM; Viability Prediction (WA09 hES cells [3]; training set, teratogenicity potential scored against therapeutic Cmax): NON; Targeted Biomarker Assay prediction (WA09 hES cells [4]; [8]): TER

Now from value to compound, other results behind:

Row | O/C Ratio Prediction (WA09 hES cells [4]) | Targeted Biomarker Assay prediction (WA09 hES cells [4]) | Compound | Model Predictions ADMA/Cystine (hES cells [1]) | Known Effect (Humans) | Model Predictions Version 2.0 (hES cells [2]) | Model Predictions Version 2.1 (hES cells [2]) | Humans (known human developmental toxicity) (Humans) | Rodent prediction (Rodent) | Viability Prediction (WA09 hES cells [3]) | Teratogenicity Potential (μM) Cell Viability (WA09 hES cells [3]; human, 72 h) | Teratogenicity Potential (μM) O/C Ratio (WA09 hES cells [4]; human, 72 h) | Cmax ([6]; training set) | further results
5 | NON | NON | CC1(C)S[C@@H]2[C@H](NC(=O)[C@H](N)c3ccc(O)cc3)C(=O)N2[C@H]1C(=O)O [Amoxicillin] | Non | Non | Non | Non | NON | NON | NON | >300 µM | >300 µM |  | Preclinical in vivo and known human developmental effects ([5]; test set compounds): None; Cmax ([6]; test set): 20.5 µM
6 |  | NON | O=C1O[C@H]([C@@H](O)CO)C(O)=C1O [Ascorbic Acid] | Non |  | Non | Non |  |  | NON | >300 µM |  | 90 µM | 
7 |  | NON | CN(C)CCOC(c1ccccc1)c1ccccc1 [Diphenhydramine] | Non |  | Non | Non |  |  | NON | 78.9 µM |  |  | 
8 |  | NON | CN(C)CCOC(C)(c1ccccc1)c1ccccn1 (centres unmarked) [Doxylamine] | Non |  | Non | Non | NON |  | NON | >300 µM |  | 0.38 µM | 
9 | NON | NON | N[C@@H](Cc1cc(I)c(Oc2cc(I)c(O)c(I)c2)c(I)c1)C(=O)O [Levothyroxine] | Non | Non | Ter | Non | NON | NON | NON | >300 µM | 43.5 µM | 0.14 µM | Rabbit prediction (Rabbit): NON; Preclinical in vivo and known human developmental effects ([5]; training set compounds): None
10 | NON | NON | Cc1ncc(C[n+]2csc(CCO)c2C)c(N)n1 [Thiamine] | Non | Non | Non | Non | NON |  | NON | >300 µM | >300 µM | 0.67 µM | Preclinical in vivo and known human developmental effects ([5]; training set compounds): None
